In ChEMBL document CHEMBL4507257, “Data for DCP probe ABT-100” (2021):

Tests used:
[1] = system: Tyrosine-protein kinase ABL1 (Homo sapiens), P00519 [F317I]; details: Compound concentration 1000.0 nM
[2] = target: Atypical kinase COQ8A, mitochondrial (Homo sapiens) (UniProt Q8NI60); details: Compound concentration 1000.0 nM
[3] = target: Atypical kinase COQ8B, mitochondrial (Homo sapiens) (UniProt Q96D53); details: Compound concentration 1000.0 nM
[4] = target: ALK tyrosine kinase receptor (Homo sapiens) (UniProt Q9UM73); details: Compound concentration 1000.0 nM
[5] = target: Ankyrin repeat and protein kinase domain-containing protein 1 (Homo sapiens) (UniProt Q8NFD2); details: Compound concentration 1000.0 nM
[6] = target: BMP-2-inducible protein kinase (Homo sapiens) (UniProt Q9NSY1); details: Compound concentration 1000.0 nM
[7] = target: Bone morphogenetic protein receptor type-1B (Homo sapiens) (UniProt O00238); details: Compound concentration 1000.0 nM
[8] = target: Calcium/calmodulin-dependent protein kinase type II subunit gamma (Homo sapiens) (UniProt Q13555); details: Compound concentration 1000.0 nM
[9] = target: Cyclin-dependent kinase 2 (Homo sapiens) (UniProt P24941); details: Compound concentration 1000.0 nM
[10] = target: Dual specificity protein kinase CLK3 (Homo sapiens) (UniProt P49761); details: Compound concentration 1000.0 nM
[11] = target: Casein kinase I isoform alpha-like (Homo sapiens) (UniProt Q8N752); details: Compound concentration 1000.0 nM
[12] = target: Discoidin domain-containing receptor 2 (Homo sapiens) (UniProt Q16832); details: Compound concentration 1000.0 nM
[13] = target: Mitogen-activated protein kinase kinase kinase 12 (Homo sapiens) (UniProt Q12852); details: Compound concentration 1000.0 nM
[14] = target: Dual specificity tyrosine-phosphorylation-regulated kinase 1A (Homo sapiens) (UniProt Q13627); details: Compound concentration 1000.0 nM
[15] = system: Epidermal growth factor receptor (Homo sapiens), P00533 [L861Q]; details: Compound concentration 1000.0 nM
[16] = target: Mitogen-activated protein kinase 8 (Homo sapiens) (UniProt P45983); details: Compound concentration 1000.0 nM
[17] = target: Mitogen-activated protein kinase 10 (Homo sapiens) (UniProt P53779); details: Compound concentration 1000.0 nM
[18] = system: Mast/stem cell growth factor receptor Kit (Homo sapiens), P10721 [A829P]; details: Compound concentration 1000.0 nM
[19] = system: Mast/stem cell growth factor receptor Kit (Homo sapiens), P10721 [L576P]; details: Compound concentration 1000.0 nM
[20] = target: Mitogen-activated protein kinase kinase kinase kinase 5 (Homo sapiens) (UniProt Q9Y4K4); details: Compound concentration 1000.0 nM
[21] = target: Dual specificity mitogen-activated protein kinase kinase 2 (Homo sapiens) (UniProt P36507); details: Compound concentration 1000.0 nM
[22] = target: Macrophage-stimulating protein receptor (Homo sapiens) (UniProt Q04912); details: Compound concentration 1000.0 nM
[23] = target: Mitogen-activated protein kinase 13 (Homo sapiens) (UniProt O15264); details: Compound concentration 1000.0 nM
[24] = target: Mitogen-activated protein kinase 12 (Homo sapiens) (UniProt P53778); details: Compound concentration 1000.0 nM
[25] = target: Calcium-dependent protein kinase 1 (Plasmodium falciparum) (UniProt P62344); details: Compound concentration 1000.0 nM
[26] = system: Phosphatidylinositol 4,5-bisphosphate 3-kinase catalytic subunit alpha isoform (Homo sapiens), P42336 [E545K]; details: Compound concentration 1000.0 nM
[27] = system: Phosphatidylinositol 4,5-bisphosphate 3-kinase catalytic subunit alpha isoform (Homo sapiens), P42336 [Q546K]; details: Compound concentration 1000.0 nM
[28] = target: Phosphatidylinositol 4-phosphate 5-kinase type-1 gamma (Homo sapiens) (UniProt O60331); details: Compound concentration 1000.0 nM
[29] = target: Phosphatidylinositol 5-phosphate 4-kinase type-2 beta (Homo sapiens) (UniProt P78356); details: Compound concentration 1000.0 nM
[30] = target: Serine/threonine-protein kinase D2 (Homo sapiens) (UniProt Q9BZL6); details: Compound concentration 1000.0 nM
[31] = target: Interferon-induced, double-stranded RNA-activated protein kinase (Homo sapiens) (UniProt P19525); details: Compound concentration 1000.0 nM
[32] = system: Proto-oncogene tyrosine-protein kinase receptor Ret (Homo sapiens), P07949 [M918T]; details: Compound concentration 1000.0 nM
[33] = target: Serine/threonine-protein kinase RIO2 (Homo sapiens) (UniProt Q9BVS4); details: Compound concentration 1000.0 nM
[34] = target: Receptor-interacting serine/threonine-protein kinase 4 (Homo sapiens) (UniProt P57078); details: Compound concentration 1000.0 nM
[35] = target: Ribosomal protein S6 kinase alpha-2 (Homo sapiens) (UniProt Q15349); details: Compound concentration 1000.0 nM
[36] = target: Ribosomal protein S6 kinase alpha-6 (Homo sapiens) (UniProt Q9UK32); details: Compound concentration 1000.0 nM
[37] = target: Serine/threonine-protein kinase Sgk2 (Homo sapiens) (UniProt Q9HBY8); details: Compound concentration 1000.0 nM
[38] = target: Serine/threonine-protein kinase Sgk3 (Homo sapiens) (UniProt Q96BR1); details: Compound concentration 1000.0 nM
[39] = target: Serine/threonine-protein kinase TNNI3K (Homo sapiens) (UniProt Q59H18); details: Compound concentration 1000.0 nM
[40] = target: Non-receptor tyrosine-protein kinase TYK2 (Homo sapiens) (UniProt P29597); details: Compound concentration 1000.0 nM
[41] = target: Serine/threonine-protein kinase 32A (Homo sapiens) (UniProt Q8WU08); details: Compound concentration 1000.0 nM
[42] = target: 5-hydroxytryptamine receptor 2B (Homo sapiens) (UniProt P41595); details: Compound concentration 10.0 uM
[43] = target: Beta-3 adrenergic receptor (Homo sapiens) (UniProt P13945); details: Compound concentration 10.0 uM
[44] = target: Sigma intracellular receptor 2 (Homo sapiens) (UniProt Q5BJF2); details: Compound concentration 10.0 uM
Chain of Sigma intracellular receptor 2 (Homo sapiens) (Q5BJF2 whole entry): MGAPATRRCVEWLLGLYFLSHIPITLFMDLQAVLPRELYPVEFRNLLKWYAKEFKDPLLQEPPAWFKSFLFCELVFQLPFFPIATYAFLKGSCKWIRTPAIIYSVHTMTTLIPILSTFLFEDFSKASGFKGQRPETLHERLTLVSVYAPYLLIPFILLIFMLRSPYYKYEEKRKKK

Chain of BMP-2-inducible protein kinase (Homo sapiens) (Q9NSY1 whole entry, looked up): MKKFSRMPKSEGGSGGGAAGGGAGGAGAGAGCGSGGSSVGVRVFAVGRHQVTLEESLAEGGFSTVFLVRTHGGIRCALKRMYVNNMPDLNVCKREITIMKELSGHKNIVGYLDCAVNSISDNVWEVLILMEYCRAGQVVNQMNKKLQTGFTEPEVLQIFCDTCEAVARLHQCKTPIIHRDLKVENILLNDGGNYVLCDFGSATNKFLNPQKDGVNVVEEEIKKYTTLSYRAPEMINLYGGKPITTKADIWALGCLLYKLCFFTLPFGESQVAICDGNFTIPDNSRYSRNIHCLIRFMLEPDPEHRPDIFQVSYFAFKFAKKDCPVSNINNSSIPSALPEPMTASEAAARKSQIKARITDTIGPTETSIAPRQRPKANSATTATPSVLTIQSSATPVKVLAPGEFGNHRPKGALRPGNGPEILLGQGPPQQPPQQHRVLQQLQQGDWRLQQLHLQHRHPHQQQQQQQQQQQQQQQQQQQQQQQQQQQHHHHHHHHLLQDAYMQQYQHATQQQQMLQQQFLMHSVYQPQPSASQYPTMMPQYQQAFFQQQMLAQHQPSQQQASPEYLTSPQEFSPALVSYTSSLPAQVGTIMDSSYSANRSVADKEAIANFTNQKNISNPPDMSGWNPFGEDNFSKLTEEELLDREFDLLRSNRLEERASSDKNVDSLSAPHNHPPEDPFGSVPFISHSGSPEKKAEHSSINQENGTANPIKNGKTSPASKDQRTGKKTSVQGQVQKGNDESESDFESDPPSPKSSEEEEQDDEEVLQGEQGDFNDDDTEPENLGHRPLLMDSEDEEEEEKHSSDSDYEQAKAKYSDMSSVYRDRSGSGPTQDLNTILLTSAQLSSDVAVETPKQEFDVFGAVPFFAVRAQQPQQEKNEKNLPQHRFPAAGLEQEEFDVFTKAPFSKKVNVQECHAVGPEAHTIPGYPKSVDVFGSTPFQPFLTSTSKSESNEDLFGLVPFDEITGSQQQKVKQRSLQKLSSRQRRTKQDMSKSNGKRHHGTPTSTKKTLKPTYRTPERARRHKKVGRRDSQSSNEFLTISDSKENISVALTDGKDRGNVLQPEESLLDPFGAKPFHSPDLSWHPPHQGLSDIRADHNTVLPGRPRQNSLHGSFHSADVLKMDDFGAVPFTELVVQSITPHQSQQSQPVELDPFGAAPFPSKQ
Chain of Serine/threonine-protein kinase Sgk2 (Homo sapiens) (Q9HBY8 whole entry): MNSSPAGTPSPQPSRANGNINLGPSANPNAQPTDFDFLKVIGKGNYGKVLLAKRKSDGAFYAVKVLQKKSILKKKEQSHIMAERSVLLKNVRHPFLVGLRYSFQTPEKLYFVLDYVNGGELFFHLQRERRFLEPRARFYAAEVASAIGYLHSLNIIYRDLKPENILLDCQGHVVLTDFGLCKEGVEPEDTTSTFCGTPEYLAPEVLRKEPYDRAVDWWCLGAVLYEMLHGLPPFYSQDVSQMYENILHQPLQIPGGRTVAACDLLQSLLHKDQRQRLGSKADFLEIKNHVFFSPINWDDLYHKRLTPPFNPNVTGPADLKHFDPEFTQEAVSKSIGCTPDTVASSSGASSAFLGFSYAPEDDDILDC
Chain of Phosphatidylinositol 5-phosphate 4-kinase type-2 beta (Homo sapiens) (P78356 whole entry): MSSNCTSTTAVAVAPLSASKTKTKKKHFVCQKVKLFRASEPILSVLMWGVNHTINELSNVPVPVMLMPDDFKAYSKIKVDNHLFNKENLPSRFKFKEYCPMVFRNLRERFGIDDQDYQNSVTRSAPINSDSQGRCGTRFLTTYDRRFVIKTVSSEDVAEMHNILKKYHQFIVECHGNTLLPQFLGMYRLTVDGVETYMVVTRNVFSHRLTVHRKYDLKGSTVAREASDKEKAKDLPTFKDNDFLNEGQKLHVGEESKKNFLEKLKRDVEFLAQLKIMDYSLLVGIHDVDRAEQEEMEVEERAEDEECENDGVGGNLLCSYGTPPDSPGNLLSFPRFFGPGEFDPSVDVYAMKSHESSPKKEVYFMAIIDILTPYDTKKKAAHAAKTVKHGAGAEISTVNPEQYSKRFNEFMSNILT
Chain of Mitogen-activated protein kinase 10 (Homo sapiens) (P53779 whole entry): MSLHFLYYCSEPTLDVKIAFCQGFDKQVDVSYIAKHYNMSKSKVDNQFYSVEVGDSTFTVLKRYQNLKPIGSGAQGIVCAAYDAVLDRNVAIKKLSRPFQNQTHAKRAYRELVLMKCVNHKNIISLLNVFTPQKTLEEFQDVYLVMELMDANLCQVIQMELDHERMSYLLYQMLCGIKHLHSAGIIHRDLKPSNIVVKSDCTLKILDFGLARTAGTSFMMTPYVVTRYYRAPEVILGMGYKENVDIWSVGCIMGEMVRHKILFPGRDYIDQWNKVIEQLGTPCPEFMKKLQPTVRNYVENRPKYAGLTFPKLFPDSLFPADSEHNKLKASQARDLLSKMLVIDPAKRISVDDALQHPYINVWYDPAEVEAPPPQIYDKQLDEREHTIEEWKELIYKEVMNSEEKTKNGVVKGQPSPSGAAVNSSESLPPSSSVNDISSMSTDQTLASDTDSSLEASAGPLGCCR
Chain of Phosphatidylinositol 4,5-bisphosphate 3-kinase catalytic subunit alpha isoform (Homo sapiens), P42336 [Q546K] (P42336 whole entry Q546K, canonical isoform): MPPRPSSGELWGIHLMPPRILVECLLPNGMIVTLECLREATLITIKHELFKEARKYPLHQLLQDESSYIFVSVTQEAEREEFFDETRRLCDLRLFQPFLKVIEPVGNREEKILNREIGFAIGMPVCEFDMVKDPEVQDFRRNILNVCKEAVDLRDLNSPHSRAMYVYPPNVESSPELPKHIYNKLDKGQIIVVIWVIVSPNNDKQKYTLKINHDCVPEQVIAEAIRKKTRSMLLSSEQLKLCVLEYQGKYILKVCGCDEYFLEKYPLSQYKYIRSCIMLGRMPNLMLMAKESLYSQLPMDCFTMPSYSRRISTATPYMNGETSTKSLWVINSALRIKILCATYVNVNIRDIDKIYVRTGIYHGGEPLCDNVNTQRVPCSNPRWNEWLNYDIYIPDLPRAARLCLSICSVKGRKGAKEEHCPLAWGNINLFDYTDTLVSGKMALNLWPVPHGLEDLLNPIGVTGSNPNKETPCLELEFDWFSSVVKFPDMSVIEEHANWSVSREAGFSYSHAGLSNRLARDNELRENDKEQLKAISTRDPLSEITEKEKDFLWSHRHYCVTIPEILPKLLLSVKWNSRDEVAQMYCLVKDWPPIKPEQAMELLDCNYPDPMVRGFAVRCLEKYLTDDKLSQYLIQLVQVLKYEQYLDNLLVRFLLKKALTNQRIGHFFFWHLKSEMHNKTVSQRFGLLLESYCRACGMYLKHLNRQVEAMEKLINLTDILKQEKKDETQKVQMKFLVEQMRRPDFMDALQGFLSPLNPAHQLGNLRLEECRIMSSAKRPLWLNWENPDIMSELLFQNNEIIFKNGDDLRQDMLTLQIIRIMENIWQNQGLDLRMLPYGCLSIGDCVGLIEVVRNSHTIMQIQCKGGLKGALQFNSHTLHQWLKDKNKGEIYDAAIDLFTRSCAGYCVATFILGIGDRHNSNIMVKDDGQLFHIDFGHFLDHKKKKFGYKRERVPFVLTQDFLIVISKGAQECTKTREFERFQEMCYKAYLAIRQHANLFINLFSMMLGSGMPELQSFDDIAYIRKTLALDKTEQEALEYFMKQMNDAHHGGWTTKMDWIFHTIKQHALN
Chain of Atypical kinase COQ8A, mitochondrial (Homo sapiens) (Q8NI60 163-647 limits assumed): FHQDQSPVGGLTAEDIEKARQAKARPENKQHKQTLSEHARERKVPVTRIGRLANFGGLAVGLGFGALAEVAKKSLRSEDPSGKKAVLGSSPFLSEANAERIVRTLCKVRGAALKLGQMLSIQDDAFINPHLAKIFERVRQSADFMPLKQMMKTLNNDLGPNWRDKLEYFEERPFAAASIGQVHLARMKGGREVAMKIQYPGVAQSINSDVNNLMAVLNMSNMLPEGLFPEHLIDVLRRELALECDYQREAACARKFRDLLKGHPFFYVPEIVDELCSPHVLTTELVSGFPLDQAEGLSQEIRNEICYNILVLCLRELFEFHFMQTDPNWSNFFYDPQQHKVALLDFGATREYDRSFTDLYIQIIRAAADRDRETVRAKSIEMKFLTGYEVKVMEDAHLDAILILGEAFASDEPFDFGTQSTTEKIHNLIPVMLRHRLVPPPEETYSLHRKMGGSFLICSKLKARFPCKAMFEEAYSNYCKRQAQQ
Chain of Mitogen-activated protein kinase 8 (Homo sapiens) (P45983 whole entry): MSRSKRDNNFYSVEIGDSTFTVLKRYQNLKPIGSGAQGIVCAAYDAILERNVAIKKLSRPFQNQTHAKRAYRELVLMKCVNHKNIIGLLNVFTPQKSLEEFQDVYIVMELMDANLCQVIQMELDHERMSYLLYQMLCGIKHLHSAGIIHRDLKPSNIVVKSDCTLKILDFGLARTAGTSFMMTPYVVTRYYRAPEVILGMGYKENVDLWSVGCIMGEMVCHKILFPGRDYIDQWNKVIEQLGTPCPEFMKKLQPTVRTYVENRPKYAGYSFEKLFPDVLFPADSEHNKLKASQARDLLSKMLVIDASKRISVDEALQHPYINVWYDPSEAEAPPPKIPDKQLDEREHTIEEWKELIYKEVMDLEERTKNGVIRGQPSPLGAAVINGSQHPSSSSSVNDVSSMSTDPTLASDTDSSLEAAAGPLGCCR
Chain of Dual specificity mitogen-activated protein kinase kinase 2 (Homo sapiens) (P36507 whole entry): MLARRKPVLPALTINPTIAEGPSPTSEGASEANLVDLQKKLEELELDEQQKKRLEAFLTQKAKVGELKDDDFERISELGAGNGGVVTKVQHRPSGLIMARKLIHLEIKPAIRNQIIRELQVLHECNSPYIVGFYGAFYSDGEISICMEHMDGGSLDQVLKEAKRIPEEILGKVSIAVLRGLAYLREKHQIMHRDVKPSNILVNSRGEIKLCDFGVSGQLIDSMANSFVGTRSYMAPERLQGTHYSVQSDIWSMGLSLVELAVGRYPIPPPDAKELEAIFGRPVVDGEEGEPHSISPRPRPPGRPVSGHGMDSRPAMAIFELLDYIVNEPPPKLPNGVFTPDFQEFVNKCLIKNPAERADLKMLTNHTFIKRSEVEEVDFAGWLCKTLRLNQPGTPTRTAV

Cn1cncc1[C@](O)(COc1ccc(C#N)cc1-c1ccc(OC(F)(F)F)cc1)c1ccc(C#N)cc1 [ABT-100]
inactive: residual activity [1] 98% | residual activity [2] 92% | residual activity [3] 72% | residual activity [4] 100% | residual activity [5] 100% | residual activity [6] 97% | residual activity [7] 77% | residual activity [8] 94% | residual activity [9] 95% | residual activity [10] 75% | residual activity [11] 74% | residual activity [12] 100% | residual activity [13] 100% | residual activity [14] 81% | residual activity [15] 71% | residual activity [16] 100% | residual activity [17] 70% | residual activity [18] 79% | residual activity [19] 100% | residual activity [20] 100% | residual activity [21] 94% | residual activity [22] 100% | residual activity [23] 87% | residual activity [24] 100% | residual activity [25] 88% | residual activity [26] 97% | residual activity [27] 82% | residual activity [28] 93% | residual activity [29] 100% | residual activity [30] 84% | residual activity [31] 100% | residual activity [32] 95% | residual activity [33] 83% | residual activity [34] 100% | residual activity [35] 89% | residual activity [36] 93% | residual activity [37] 100% | residual activity [38] 100% | residual activity [39] 82% | residual activity [40] 56% | residual activity [41] 100% | inhibition [42] -5.75% | inhibition [43] 32.9% | inhibition [44] 40.3%

Cn1cncc1[C@@](O)(COc1ccc(C#N)cc1-c1ccc(OC(F)(F)F)cc1)c1ccc(C#N)cc1 [A-108]
inactive: residual activity [1] 100% | residual activity [2] 100% | residual activity [3] 100% | residual activity [4] 70% | residual activity [5] 100% | residual activity [6] 79% | residual activity [7] 96% | residual activity [8] 98% | residual activity [9] 89% | residual activity [10] 100% | residual activity [11] 100% | residual activity [12] 95% | residual activity [13] 100% | residual activity [14] 99% | residual activity [15] 100% | residual activity [16] 77% | residual activity [17] 75% | residual activity [18] 100% | residual activity [19] 95% | residual activity [20] 100% | residual activity [21] 74% | residual activity [22] 100% | residual activity [23] 90% | residual activity [24] 100% | residual activity [25] 75% | residual activity [26] 80% | residual activity [27] 85% | residual activity [28] 100% | residual activity [29] 100% | residual activity [30] 100% | residual activity [31] 100% | residual activity [32] 98% | residual activity [33] 100% | residual activity [34] 94% | residual activity [35] 100% | residual activity [36] 100% | residual activity [37] 100% | residual activity [38] 100% | residual activity [39] 100% | residual activity [40] 92% | residual activity [41] 75% | inhibition [42] 18.6% | inhibition [43] -5.85% | inhibition [44] 37.8%
